Legend:
Assay type in all cases: in vivo, mouse
[1] = tested on: mice overexpressing A53T α-synuclein; test: Novel object recognition (NOR) test in A53T mice; conditions: A53T mice dosed from 6 weeks of age, tested at 4.5 months; FIG. 3
[2] = tested on: mice overexpressing A53T α-synuclein; test: Fear conditioning (FC) tests in A53T mice; conditions: eight months of age
[3] = Tissue distribution of Compound 1 in brain and liver after oral administration in food; conditions: Gba1^D409V/D409V mice
Experimental: Gba1^D409V/D409V mice (harboring a point mutation at residue 409 in the murine Gba1 gene) were bred under a protocol approved by the Institutional Animal Care and Use Committee. Treatments were administered as described and the animals were humanely sacrificed at pre-determined time points or upon reaching a humane endpoint.
A subset of Gba1^D409V/D409V mice received Compound 1 administered in food using a formulation calculated to provide 60 mg/kg/day. Drug administration was initiated when pups were weaned at 4 weeks of age and continued until euthanasia at 4 or 10 months of age. The concentration of Compound 1 in brain and liver tissues was determined by mass spectrometry (see e.g. Ramanathan et al. “The emergence of high-resolution MS as the premier analytical tool in the pharmaceutical bioanalysis arena” Bioanalysis. March 2012; 4(5):467-469).

[4] = tested on: symptomatic Gba1^D409V/D409V mice; test: NOR test in post-symptomatic Gba1^D409V/D409V mice; conditions: treatment from approximately 6 months of age, tested at 12 months, n=13, p<0.05; FIG. 16
Experimental: Gba1^D409V/D409V mice were bred and treated according to Example 24. Mice were fed the control diet or the Compound 1 diet as described in Example 24, except that drug administration was initiated when animals were approximately 6 months of age, and continued until euthanasia at 13 months of age.
Hippocampal memory was evaluated with the NOR test according to Example 25, except that the mice were tested at 6 months of age (before treatment) and again 6 months later, at 12 months of age (after treatment).

protein tau aggregates = test: Hippocampal quantification of protein tau aggregates in A53T mice; conditions: 8 months of age, FIG. 14
Experimental: For histological analysis, mice were perfused with cold PBS. Brains were removed and post-fixed in 10% (v/v) neutral buffered formalin for 48 hours. Tissues were then placed in 30% sucrose, embedded and sectioned at 20 μm in a cryostat. Some tissues were pretreated with proteinase K (1:4 dilution; DAKO, Carpinteria, Calif.) for 7 minutes at room temperature to expose α-synuclein and other aggregated proteins. […] For α-synuclein aggregate quantification, a cyanine 3-tyramide signal amplification kit was used (PerkinElmer, Waltham, Mass.). […]
For morphometric analysis, sections were imaged with a SPOT camera (Diagnostic Instruments, Sterling Heights, Mich.) paired with a Nikon Eclipse E800 fluorescence microscope equipped with a 20λ objective lens. […] For ubiquitin and tau quantification, the same threshold was used for all images such that the aggregates were positively counted and the threshold area was recorded for each image in pixels. For α-synuclein quantification, each image was analyzed individually using a range of threshold values to quantify the area of the aggregates accurately and eliminate variable background signals. […] The percent threshold area was calculated and expressed as mean±SEM. […]

human A53T-α-synuclein = test: Subcellular localization of α-synuclein in cortical tissue homogenates of A53T mice (serial fractionation, ELISA); conditions: cortex, 8 months of age
Gba1^D409V/D409V mice [5] = test: Novel object recognition (NOR) test in Gba1^D409V/D409V mice; conditions: 60 mg/kg/day in food from 4 weeks of age, tested at 3 months; FIG. 1
Experimental: (§1) Gba1^D409V/D409V mice were bred and treated according to Example 24.
(§2) Mice were fed the control diet or the Compound 1 diet as described in Example 24.
In the NOR test, […] wild type (WT) and Gba1^D409V/D409V mice were dosed with Compound 1 starting at 4 weeks of age and were subjected to the NOR test at 3 months (2 months post-treatment).
Mice were individually habituated to explore an open-field box for 5 minutes. During the first training session (T1), two identical objects were symmetrically placed into the open field 14 inches from each other. Animals were allowed to explore for 5 minutes. The number of investigations was recorded by a blinded investigator. After a 24 hour retention period, animals were tested (T2) for their recognition of a novel object. Mice were placed back into the open-field box for 5 minutes, and the time spent investigating the familiar and novel objects was recorded.
Statistical analyses were performed by Student's t-test or analysis of variance (ANOVA) followed by Newman-Keuls' post-hoc test. Preference for novelty was defined as investigating the novel object more than 50% of the time by a one-sample t-test. All statistical analyses were performed with GraphPad Prism v4.0 (GraphPad Software, San Diego, Calif.). Values of p<0.05 were considered significant.

[6] = tested on: protein aggregates (ubiquitin, α-synuclein and/or protein tau); test: Protein aggregation in brains of post-symptomatic Gba1^D409V/D409V mice (Example 33); conditions: administration initiated after symptoms of cognitive impairment, approximately 6 months of age
Experimental: Wild-type (WT) and Gba1^D409V/D409V mice are bred and treated substantially as described in Example 27, except that drug administration is initiated when animals are symptomatic for cognitive impairment, e.g. at approximately 6 months of age.
The accumulation of proteins (ubiquitin, α-synuclein and protein tau) is determined by hippocampal quantification and protein immunoreactivity substantially as described in Example 27.

Gba1^D409V/D409V mice [7] = test: Fear conditioning (FC) tests in Gba1^D409V/D409V mice; conditions: ten month-old mice, 60 mg/kg/day in food
Text: as §1, §2
Ten month-old wild type (WT) and Gba1^D409V/D409V mice were subjected to FC memory tests. For the FC tests, mice were trained in four of the Med Associates® Near Infrared Fear Conditioning System chambers (St. Albans, Vt.). Mice were placed in the contextual fear chamber in “Context A,” which consists of lighting, a neutral background and a stainless steel grid floor. The mice were trained with a 3-trial delay-cued protocol as defined below. The mice were first given 2 minutes to explore the chamber in Context A before a conditioned stimulus (CS) of a 2000 Hz cue was given. Thirty seconds later a one second unconditioned stimulus (US) of 0.6 mA foot shock was applied. With an inter-trial interval (ITI) of 30 sec, this US-CS response was repeated three times. After a 24 hour retention period, mice were brought back to the testing room and habituated to the room for 1 hour. The mice were again placed in Context A for 5 minutes and freezing to the context was recorded. Freezing (defined as the lack of movement, except for respiration) was recorded using a near-infrared camera system. […] Again, freezing to the novel environment and the cue were assessed with the near infrared camera system. […]

[8] = tested on: protein aggregates (ubiquitin, α-synuclein and/or protein tau); test: Protein aggregation in brains of Gba1^D409V/D409V mice with Compound 2 (Example 35); conditions: diet containing Compound 2
Experimental: Wild-type (WT) and Gba1^D409V/D409V mice are fed the control diet or a diet containing a quinuclidine compound substantially as described in Example 27, except that the compound administered is Compound 2.
The accumulation of proteins (ubiquitin, α-synuclein and protein tau) is determined by hippocampal quantification and protein immuoreactivity as described in Example 27.

Gba1^D409V/D409V mice [9] = test: NOR and FC tests in Gba1^D409V/D409V mice with Compound 2 (Example 34); conditions: diet containing Compound 2
Experimental: Gba1^D409V/D409V mice are bred and treated substantially as described in Example 24. Mice are fed a control diet or a diet containing a quinuclidine compound substantially as described in Example 25, except that the compound administered is Compound 2.
The NOR test and the FC test are performed substantially as described in Example 25.

[10] = in food, 60 mg/kg/day, mass spectrometry

Row | Structure (SMILES) | NOR test, target investigations of novel object during testing (T2) [1] | FC test, contextual memory (freezing responses) ([2]; FIG. 4A) | FC test, cued memory ([2]; FIG. 4B) | concentration in the brain as percentage of the concentration in the liver ([3]; in food, 60 mg/kg/day) | tissue exposure in the cortex [3, 10] [ng/g tissue] | tissue exposure in the liver [3, 10] [ng/g tissue] | blood-brain barrier penetration ([3]; oral in food) | NOR test, investigation of novel object during testing trial [4] | level of protein tau aggregates in hippocampus (protein tau aggregates) | level of insoluble α-synuclein (human A53T-α-synuclein; SDS-soluble fraction, n=14, P<0.01, FIG. 11C) | level of cytosolic soluble α-synuclein (human A53T-α-synuclein; Tris-soluble fraction, n=14, P=0.17, FIG. 11A) | level of membrane-associated α-synuclein (human A53T-α-synuclein; Triton-soluble fraction, n=14, P<0.05, FIG. 11B) | NOR test, target investigations of novel object during testing (T2) (Gba1^D409V/D409V mice [5]) | accumulation of protein aggregates (ubiquitin, α-synuclein and/or protein tau) in the brains [6] | FC test, contextual memory (freezing responses) (Gba1^D409V/D409V mice [7]; FIG. 2A) | FC test, cued memory (Gba1^D409V/D409V mice [7]; FIG. 2B) | accumulation of protein aggregates (ubiquitin, α-synuclein and/or protein tau) in the brains [8] | memory deficit (NOR and FC tests) (Gba1^D409V/D409V mice [9])
1 | CC(C)(NC(=O)OC1CN2CCC1CC2)c1cccc(-c2ccc(F)cc2)c1 (stereo not drawn) [Compound 1, 1-azabicyclo[2.2.2]oct-3-yl [2-(4′-fluorobiphenyl-3-yl)propan-2-yl]carbamate] | trend to reversal of their memory deficit | improved the freezing responses | only a marginal effect | approximately 2% | 217±12 | 10512±603 | crosses the blood-brain barrier | recovered the ability to investigate the unfamiliar object | significant reduction | 81±3 % of the control value | 114±8 % of the control value | 75±8 % of the control value | trend to reversal of their memory deficit | measurable reduction | improved the freezing responses | no effect | – | –
2 | CC(C)(NC(=O)O[C@@H]1CN2CCC1CC2)c1csc(-c2ccc(F)cc2)n1 [Compound 2, (S)-quinuclidin-3-yl 2-(2-(4-fluorophenyl)thiazol-4-yl)propan-2-ylcarbamate] | – | – | – | – | – | – | – | – | – | – | – | – | – | – | – | – | measurable reduction | improve memory deficit
